Drawing on PubChem BioAssay AID212 (DTP/NCI, 2004), this text covers T/C for 11 compounds.

This assay deals with BDF1 mice, colon carcinoma 38 sc, T/C %. Put plainly: NCI In Vivo Anticancer Drug Screen. Data for tumor model Colon Carcinoma 38 (subcutaneous) in B6D2F1 (BDF1) mice. In short, it runs like this: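 Ratio of survival or tumor size, compound-treated animals relative to vehicle controls, in tumor-bearing mice.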
Where [1] appears, read: endpoint: median tumor weight (est.), dose: 2.5 mg/kg/injection, schedule: Q07DX002 (ip), vehicle: saline, higher = larger tumour.
Setting [2] is: endpoint: median tumor weight (est.), dose: 5.0 mg/kg/injection, schedule: Q07DX002 (ip), vehicle: saline, higher = larger tumour.
Setting [3] is: endpoint: median tumor weight (est.), dose: 20.0 mg/kg/injection, schedule: Q07DX002 (ip), vehicle: saline, higher = larger tumour.
[4] abbreviates: endpoint: median tumor weight (est.), dose: 12.5 mg/kg/injection, schedule: Q07DX002 (ip), vehicle: Klucel (hydroxypropylcellulose) (HPC), higher = larger tumour.
Setting [5] is: endpoint: median tumor weight (est.), dose: 100.0 mg/kg/injection, schedule: Q07DX002 (ip), vehicle: Klucel (hydroxypropylcellulose) (HPC), higher = larger tumour.
The mark [6] stands for this setting: endpoint: median tumor weight (est.), dose: 50.0 mg/kg/injection, schedule: Q07DX002 (ip), vehicle: Klucel (hydroxypropylcellulose) (HPC), higher = larger tumour.
Setting [7] is: endpoint: median tumor weight (est.), dose: 400.0 mg/kg/injection, schedule: Q07DX002 (ip), vehicle: Klucel (hydroxypropylcellulose) (HPC), higher = larger tumour.

“And” between values parts separate entries of the source, which are not always exact repeats. Equal values may be shown once. Records with an inconclusive call do not appear.

Consider `COc1cccc2c1C(=O)c1c(O)c3c(c(O)c1C2=O)C[C@@](O)(C(=O)CO)C[C@@H]3OC1CC(N)C(O)C(C)O1` (stereo partly specified), for which the T/C (endpoint: median survival time, dose: 2.7 mg/kg/injection, schedule: Q07DX003 (iv), vehicle: saline, higher = longer survival) is 104 % of control; the T/C (endpoint: median survival time, dose: 3.3 mg/kg/injection, schedule: Q07DX002 (iv), vehicle: saline, higher = longer survival) is 112 % of control and 108 % of control; the T/C (endpoint: median survival time, dose: 3.3 mg/kg/injection, schedule: Q07DX004 (iv), vehicle: saline, higher = longer survival) is 118 % of control; the T/C (endpoint: median survival time, dose: 4.1 mg/kg/injection, schedule: Q07DX003 (iv), vehicle: saline, higher = longer survival) is 100 % of control; the T/C (endpoint: median survival time, dose: 4.5 mg/kg/injection, schedule: Q07DX002 (sc), vehicle: saline, higher = longer survival) is 79 % of control; the T/C (endpoint: median survival time, dose: 5.2 mg/kg/injection, schedule: Q07DX002 (iv), vehicle: saline, higher = longer survival) is 174 % of control. The T/C is 109 % of control and 124 % of control (endpoint: median survival time, dose: 5.4 mg/kg/injection, schedule: Q07DX002 (iv), vehicle: saline, higher = longer survival); 155 % of control (endpoint: median survival time, dose: 5.4 mg/kg/injection, schedule: Q07DX004 (iv), vehicle: saline, higher = longer survival); 157 % of control (endpoint: median survival time, dose: 6.0 mg/kg/injection, schedule: Q07DX003 (iv), vehicle: saline, higher = longer survival); 104 % of control (endpoint: median survival time, dose: 7.3 mg/kg/injection, schedule: Q07DX002 (sc), vehicle: saline, higher = longer survival); 166 % of control (endpoint: median survival time, dose: 8.5 mg/kg/injection, schedule: Q07DX002 (sc), vehicle: saline, higher = longer survival); 124 % of control (endpoint: median survival time, dose: 8.7 mg/kg/injection, schedule: Q07DX002 (iv), vehicle: saline, higher = longer survival). Moreover, the T/C runs as follows: (endpoint: median survival time, dose: 8.7 mg/kg/injection, schedule: Q07DX004 (iv), vehicle: saline, higher = longer survival) 184 % of control; (endpoint: median survival time, dose: 9.0 mg/kg/injection, schedule: Q07DX003 (iv), vehicle: saline, higher = longer survival) 168 % of control; (endpoint: median survival time, dose: 9.0 mg/kg/injection, schedule: Q07DX003 (sc), vehicle: saline, higher = longer survival) 164 % of control; (endpoint: median survival time, dose: 12.0 mg/kg/injection, schedule: Q07DX002 (sc), vehicle: saline, higher = longer survival) 113 % of control; (endpoint: median survival time, dose: 13.5 mg/kg/injection, schedule: Q07DX003 (sc), vehicle: saline, higher = longer survival) 166 % of control; (endpoint: median survival time, dose: 15.5 mg/kg/injection, schedule: Q07DX003 (iv), vehicle: saline, higher = longer survival) 152 % of control. The T/C by setting is: (endpoint: median tumor weight (est.), dose: 0.18 mg/kg/injection, schedule: Q07DX002 (ip), vehicle: water, higher = larger tumour) 67 % of control; (endpoint: median tumor weight (est.), dose: 0.37 mg/kg/injection, schedule: Q07DX002 (ip), vehicle: water, higher = larger tumour) 102 % of control; (endpoint: median tumor weight (est.), dose: 0.5 mg/kg/injection, schedule: Q07DX002 (ip), vehicle: water, higher = larger tumour) 108 % of control; (endpoint: median tumor weight (est.), dose: 0.5 mg/kg/injection, schedule: Q07DX003 (ip), vehicle: saline, higher = larger tumour) 101 % of control; (endpoint: median tumor weight (est.), dose: 1.0 mg/kg/injection, schedule: Q07DX003 (ip), vehicle: saline, higher = larger tumour) 101 % of control; (endpoint: median tumor weight (est.), dose: 1.25 mg/kg/injection, schedule: Q07DX002 (ip), vehicle: water, higher = larger tumour) 90 % of control. For the same compound, the T/C is, setting by setting: (endpoint: median tumor weight (est.), dose: 2.0 mg/kg/injection, schedule: Q07DX003 (ip), vehicle: saline, higher = larger tumour) 191 % of control; under setting [1], 90 % of control; (endpoint: median tumor weight (est.), dose: 2.5 mg/kg/injection, schedule: Q07DX002 (ip), vehicle: water, higher = larger tumour) 50 % of control; (endpoint: median tumor weight (est.), dose: 3.0 mg/kg/injection, schedule: Q07DX002 (ip), vehicle: saline, higher = larger tumour) 106 % of control and 110 % of control; (endpoint: median tumor weight (est.), dose: 3.0 mg/kg/injection, schedule: Q07DX003 (iv), vehicle: saline, higher = larger tumour) 82 % of control and 83 % of control; (endpoint: median tumor weight (est.), dose: 4.0 mg/kg/injection, schedule: Q07DX003 (ip), vehicle: saline, higher = larger tumour) 85 % of control. Also, the T/C is, setting by setting: (endpoint: median tumor weight (est.), dose: 4.75 mg/kg/injection, schedule: Q07DX002 (ip), vehicle: water, higher = larger tumour) 68 % of control; under setting [2], 70 % of control; (endpoint: median tumor weight (est.), dose: 5.0 mg/kg/injection, schedule: Q07DX002 (ip), vehicle: water, higher = larger tumour) 25 % of control; (endpoint: median tumor weight (est.), dose: 6.33 mg/kg/injection, schedule: Q07DX002 (ip), vehicle: water, higher = larger tumour) 14 % of control; (endpoint: median tumor weight (est.), dose: 8.0 mg/kg/injection, schedule: Q07DX003 (ip), vehicle: saline, higher = larger tumour) 91 % of control; (endpoint: median tumor weight (est.), dose: 8.44 mg/kg/injection, schedule: Q07DX002 (ip), vehicle: water, higher = larger tumour) 53 % of control. Moreover, the T/C by setting is: (endpoint: median tumor weight (est.), dose: 9.0 mg/kg/injection, schedule: Q07DX002 (ip), vehicle: water, higher = larger tumour) 56 % of control; (endpoint: median tumor weight (est.), dose: 11.25 mg/kg/injection, schedule: Q07DX002 (ip), vehicle: water, higher = larger tumour) 21 % of control; (endpoint: median tumor weight (est.), dose: 12.0 mg/kg/injection, schedule: Q07DX002 (ip), vehicle: saline, higher = larger tumour) 53 % of control; (endpoint: median tumor weight (est.), dose: 12.0 mg/kg/injection, schedule: Q07DX003 (iv), vehicle: saline, higher = larger tumour) 26 % of control; (endpoint: median tumor weight (est.), dose: 15.0 mg/kg/injection, schedule: Q07DX002 (ip), vehicle: water, higher = larger tumour) 6 % of control; (endpoint: median tumor weight (est.), dose: 16.0 mg/kg/injection, schedule: Q07DX003 (ip), vehicle: saline, higher = larger tumour) 103 % of control. The T/C (endpoint: median tumor weight (est.), dose: 24.0 mg/kg/injection, schedule: Q07DX003 (iv), vehicle: saline, higher = larger tumour) is 12 % of control.

For `CCCCCC(O)C1C(=O)OC(C)C(O)/C=C/C=C/C=C/C=C\C=C(\C)C(O)CC(O)CC(O)CC(O)CC(O)CC(O)CC1O` (stereo unspecified), the T/C was 105 % of control under setting [1], 64 % of control under setting [2] and 71 % of control under setting [3].

As to `CC(=O)OC1=NC(C)c2c1cc(OC(C)=O)[nH]c2=O` (stereo unspecified), the T/C was 124 % of control (endpoint: median tumor weight (est.), dose: 6.25 mg/kg/injection, schedule: Q07DX002 (ip), vehicle: Klucel (hydroxypropylcellulose) (HPC), higher = larger tumour); 70 % of control and 85 % of control under setting [4]; 100 % of control (endpoint: median tumor weight (est.), dose: 200.0 mg/kg/injection, schedule: Q07DX002 (ip), vehicle: Klucel (hydroxypropylcellulose) (HPC), higher = larger tumour).

As to `C1CC[N-]CC1.[Cl][Pt+2][Cl].[NH-]C1CC1`, the T/C is 75 % of control (endpoint: median tumor weight (est.), dose: 6.25 mg/kg/injection, schedule: Q07DX002 (ip), vehicle: water, higher = larger tumour); 86 % of control (endpoint: median tumor weight (est.), dose: 25.0 mg/kg/injection, schedule: Q07DX002 (ip), vehicle: water, higher = larger tumour); 163 % of control (endpoint: median tumor weight (est.), dose: 100.0 mg/kg/injection, schedule: Q07DX002 (ip), vehicle: water, higher = larger tumour).

Take `Cn1cnc([N+](=O)[O-])c1S(=O)(=O)NCN1CCOCC1`: under setting [5], the T/C was 102 % of control and 104 % of control.

Take `Nc1ccccc1N`: the T/C runs as follows: under setting [4], 75 % of control and 91 % of control; (endpoint: median tumor weight (est.), dose: 25.0 mg/kg/injection, schedule: Q07DX002 (ip), vehicle: Klucel (hydroxypropylcellulose) (HPC), higher = larger tumour) 122 % of control and 102 % of control; under setting [6], 91 % of control; under setting [7], 54 % of control.

Take `NC1CCCCC1N.O=C1C=CC(=C(c2ccc(O)cc2)c2ccccc2S(=O)(=O)[O-])C=C1.O=[N+]([O-])[O-].[Pt+4]`: the T/C (endpoint: median tumor weight (est.), dose: 1.56 mg/kg/injection, schedule: Q07DX002 (ip), vehicle: saline, higher = larger tumour) was 14 % of control.

Consider `COc1cc(C)c(C2NC(=O)c3ccccc3N2)cc1C` (stereo unspecified), for which the T/C reads like this: under setting [6], 121 % of control; under setting [5], 78 % of control; under setting [7], 117 % of control; (endpoint: median tumor weight (est.), dose: 800.0 mg/kg/injection, schedule: Q07DX002 (ip), vehicle: Klucel (hydroxypropylcellulose) (HPC), higher = larger tumour) 108 % of control.

Regarding `O=S(=O)(c1ccccc1)N1CN2CCN(C2)C1`, the T/C runs as follows: (endpoint: median tumor weight (est.), dose: 25.0 mg/kg/injection, schedule: Q07DX002 (ip), vehicle: saline with Tween-80, higher = larger tumour) 94 % of control; (endpoint: median tumor weight (est.), dose: 50.0 mg/kg/injection, schedule: Q07DX002 (ip), vehicle: saline with Tween-80, higher = larger tumour) 62 % of control.

`C1OC1C1CO1` (stereo unspecified): the T/C by setting is: (endpoint: median tumor weight (est.), dose: 10.0 mg/kg/injection, schedule: Q07DX002 (ip), vehicle: saline, higher = larger tumour) 99 % of control and 107 % of control; under setting [3], 119 % of control and 120 % of control; (endpoint: median tumor weight (est.), dose: 40.0 mg/kg/injection, schedule: Q07DX002 (ip), vehicle: saline, higher = larger tumour) 96 % of control.

As to `CC(=O)O[C@@H]1[C@@H](O)C2=C3[C@]4(C)[C@@H]1C(C)(C)C(=O)C[C@@H]4[C@]3(O)[C@H](OC(C)=O)[C@@]1(C[C@@H]1C)C2=O`, the T/C by setting is: (endpoint: median tumor weight (est.), dose: 3.12 mg/kg/injection, schedule: Q07DX003 (ip), vehicle: saline with Tween-80, higher = larger tumour) 97 % of control; (endpoint: median tumor weight (est.), dose: 6.25 mg/kg/injection, schedule: Q07DX003 (ip), vehicle: saline with Tween-80, higher = larger tumour) 93 % of control; (endpoint: median tumor weight (est.), dose: 25.0 mg/kg/injection, schedule: Q07DX003 (ip), vehicle: saline with Tween-80, higher = larger tumour) 86 % of control; (endpoint: median tumor weight (est.), dose: 50.0 mg/kg/injection, schedule: Q07DX003 (ip), vehicle: saline with Tween-80, higher = larger tumour) 64 % of control.
